Experimental data reported in PubChem BioAssay (NCI).
Several values for one entry are separate records, joined by “and”; a condition that tells them apart may be missing. Equal entries are not always repeated.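 Following 48 hours of exposure in 96-well plates, responses at five concentrations were used to interpolate endpoints linearly. GI50 = concentration required for 50% inhibition of growth. TGI: total growth inhibition.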

Tests used:
Test in all cases: NCI-60 cell line screen, 48 h
T-47D breast = tested on: T-47D breast
U251 CNS = tested on: U251 CNS
NCI-H460 lung = tested on: NCI-H460 lung
SK-OV-3 ovarian = tested on: SK-OV-3 ovarian
HCC-2998 colon = tested on: HCC-2998 colon
OVCAR-8 ovarian = tested on: OVCAR-8 ovarian
IGROV1 ovarian = tested on: IGROV1 ovarian
LOX IMVI melanoma = tested on: LOX IMVI melanoma
SF-268 CNS = tested on: SF-268 CNS
BT-549 breast = tested on: BT-549 breast

Compound	GI50 (T-47D breast)	TGI (T-47D breast)	GI50 (U251 CNS)	TGI (U251 CNS)	GI50 (NCI-H460 lung)	TGI (NCI-H460 lung)	GI50 (SK-OV-3 ovarian)	TGI (SK-OV-3 ovarian)	GI50 (HCC-2998 colon)	TGI (HCC-2998 colon)	GI50 (OVCAR-8 ovarian)	TGI (OVCAR-8 ovarian)	GI50 (IGROV1 ovarian)	TGI (IGROV1 ovarian)	GI50 (LOX IMVI melanoma)	TGI (LOX IMVI melanoma)	GI50 (SF-268 CNS)	TGI (SF-268 CNS)	GI50 (BT-549 breast)	TGI (BT-549 breast)
O=C(Nc1nc(-c2ccccc2Cl)cs1)c1cc(-c2ccc(Cl)cc2)nc2ccc(Cl)cc12	22.5 µM	> 100 µM	3.42 µM	28.6 µM	31.8 µM	> 100 µM	26 µM	> 100 µM	5.61 µM	> 100 µM	1.19 µM	16.2 µM	2.99 µM	> 100 µM	0.457 µM	20.8 µM	2.37 µM	32.9 µM	2.44 µM	6.99 µM
CCCCCCn1c2c(c3c(O)cccc31)C(=O)c1ccccc1-2	41.4 µM	> 100 µM	17.8 µM	32.9 µM	17.6 µM	35.8 µM	36.3 µM	> 100 µM	15.7 µM	29.4 µM	17.4 µM	36.7 µM	19.2 µM	39.6 µM	18.1 µM	33.8 µM	20.3 µM	40.5 µM	16.4 µM	33.9 µM
CSc1nc(SC)c2c(C)cn(C3OC(C)C(O)C(O)C3O)c2n1 (centres undefined)		84.7 µM		> 100 µM		> 100 µM		> 100 µM		> 100 µM		> 100 µM		> 100 µM		> 100 µM		> 100 µM		> 100 µM
O=C(NC(Cc1ccccc1)C(=O)CCl)OCc1ccccc1 (centres undefined)	3.37 µM	16.7 µM	6.97 µM	19.6 µM and 22.8 µM	4.34 µM	17.4 µM and 19.8 µM	11.9 µM	29.7 µM and 27.6 µM	12.3 µM	28.8 µM and 32.2 µM		15 µM and 17.6 µM	2.98 µM	13.6 µM and 27.3 µM	1.3 µM	3.12 µM and 7.49 µM	4.36 µM	16.3 µM and 26.3 µM	2.31 µM	6 µM
Cc1cc(Cl)ccc1Nc1nc2c(s1)C(=O)c1ccccc1C2=O		7.06 µM		12.7 µM		9.5 µM		26.1 µM		16.1 µM		11.6 µM		11.9 µM		3.12 µM		11.3 µM		2.9 µM
COC1/C=C/OC2(C)Oc3c(C)c(O)c4c(O)c(c(C=NOC(c5ccccc5)c5ccccc5)c(O)c4c3C2=O)NC(=O)/C(C)=C/C=C/C(C)C(O)C(C)C(O)C(C)C(OC(C)=O)C1C (centres undefined)	1.87 µM	6.71 µM	0.975 µM	1.96 µM	1.05 µM	2.18 µM	1.88 µM	6.67 µM	0.97 µM	1.93 µM	1.56 µM	4.64 µM	1.72 µM	5.54 µM	0.913 µM	1.82 µM	2.25 µM	8.23 µM	1.62 µM	5.47 µM
CS(=O)(=O)c1ccc(-c2cnc(NCc3ccco3)n3cnnc23)cc1	47.8 µM	> 100 µM	> 100 µM	> 100 µM	> 100 µM	> 100 µM	> 100 µM	> 100 µM	> 100 µM	> 100 µM	> 100 µM	> 100 µM	> 100 µM	> 100 µM	60.1 µM	> 100 µM	> 100 µM	> 100 µM	> 100 µM	> 100 µM
COc1cc(/C=C2\CC3C4CCC5=CC(=O)CC[C@]5(C)C4CC[C@]3(C)C2=O)ccc1OCCN1CCCCC1 (some centres undefined)	11.3 µM	41.9 µM	3.2 µM	11.2 µM	3.43 µM	14.1 µM	20.5 µM	48.7 µM	3.26 µM	12.5 µM	15.9 µM	62.5 µM	11.2 µM	> 100 µM	1.42 µM	3.3 µM	4.72 µM	16.4 µM	6.19 µM	23.3 µM
COc1ccc(/C=C/C(=O)c2ccccc2)cc1OC	18.4 µM	48.7 µM and 60.8 µM	5.81 µM	21.9 µM and 18.1 µM	14.3 µM	32.5 µM and 37.5 µM	37.8 µM	29.5 µM and > 100 µM	14.2 µM	33.2 µM and 28.6 µM		39.6 µM and 39.2 µM	15.4 µM	49.7 µM and 43.7 µM	3.32 µM	28.1 µM and 14.6 µM	19.7 µM	36.7 µM and 64.9 µM		37.5 µM and 35.3 µM
Cc1nc2cc(Nc3nc(Nc4ccc(F)cc4)nc(N4CCCC4)n3)ccc2n1Cc1ccccc1	2.18 µM	4.94 µM	1.66 µM	3.36 µM	1.82 µM	3.44 µM	2.18 µM	5.2 µM	1.93 µM	3.73 µM	2.15 µM	4.79 µM	1.9 µM	3.48 µM	1.84 µM	3.36 µM	1.94 µM	3.9 µM	1.88 µM	3.5 µM
COc1cccc(/C=C2\CCc3ccccc3C2=O)c1	13.6 µM	38.9 µM	5.3 µM	20.2 µM	17 µM	35 µM	20.7 µM	75.6 µM	15.8 µM	30.6 µM	12.4 µM	60.7 µM	12.5 µM	35 µM	12.9 µM	36.8 µM	14.8 µM	29.1 µM	20 µM	47.6 µM
COc1cc2oc(-c3ccc(O)cc3)cc(=O)c2c(OC)c1O		88.2 µM		> 100 µM		> 100 µM		> 100 µM		> 100 µM		> 100 µM		> 100 µM		> 100 µM		> 100 µM		> 100 µM
COc1ccc2c(c1)CC1N(C)CCC13CCCCC23 (centres undefined)		> 100 µM		> 100 µM		> 100 µM		> 100 µM		> 100 µM		> 100 µM		> 100 µM		> 100 µM		> 100 µM		> 100 µM
COc1c(OC)c(OC)c(-c2cc(=O)c3c(OC)c(OC)c(OC)c(OC)c3o2)c(OC)c1OC		47.9 µM		> 100 µM		> 100 µM		> 100 µM		> 100 µM		> 100 µM		64.2 µM		> 100 µM		> 100 µM		> 100 µM
CCN(CC)CCNC(=O)C(Cl)=C1C(Cl)=C(Cl)C(Cl)=C1Cl	4.19 µM	45.6 µM	2.85 µM	10.2 µM	2.71 µM	11.1 µM	3.21 µM	> 100 µM	8.08 µM	22.8 µM	2.81 µM	> 100 µM	3.19 µM	> 100 µM	1.83 µM	4.53 µM	3.25 µM	22 µM	12.6 µM	25.3 µM
N/C(=N\C(N)=N\c1nc2ccccc2s1)c1ccnc(Br)c1	8.01 µM	> 100 µM	5.63 µM	48.9 µM	4.33 µM	> 100 µM	5.95 µM	> 100 µM	66 µM	> 100 µM	10.3 µM	> 100 µM	3.63 µM	> 100 µM	4.27 µM	> 100 µM	5.88 µM	> 100 µM	4.32 µM	> 100 µM
O=C(c1ccccc1)c1c2n(c3c1cc(O)c1ccccc13)CCN2	1.77 µM	3.99 µM	1.78 µM	3.4 µM	4.7 µM	15.8 µM	11.1 µM	25.2 µM	6.11 µM	18.9 µM	2.7 µM	7.67 µM	2.19 µM	4.84 µM	2.7 µM	6.87 µM	3.19 µM	9.85 µM	13.5 µM	30.6 µM
Cc1cc2nc3c4cc([N+](=O)[O-])ccc4n(CCN(C)C)c3nc2cc1C	0.549 µM	> 42 µM	0.48 µM	11.9 µM	0.352 µM	1.75 µM	0.905 µM	> 43.4 µM	0.683 µM	2.34 µM	0.509 µM	> 88 µM	0.385 µM	3.23 µM	0.28 µM	1.19 µM	0.787 µM	6.92 µM	2 µM	5.85 µM
Oc1[nH]c2ccccc2c1/C=c1/ccc2c(c1)N=C(c1cc(F)cc(F)c1)N=2	4.55 µM	21.3 µM	3.89 µM	17.6 µM	7.04 µM	22.8 µM	14.2 µM	29 µM	5.65 µM	20.7 µM	4.56 µM	33.3 µM	10.5 µM	28.1 µM	3.94 µM	18.9 µM	9.44 µM	25.6 µM	2.13 µM	12.1 µM
Cn1c(=O)c(-c2c(Cl)cccc2Cl)cc2cnc(Nc3ccc(I)cc3)nc21	0.229 µM	> 100 µM	0.305 µM	13.6 µM	< 0.01 µM	10.4 µM	0.0734 µM		< 0.0293 µM	0.213 µM	1.52 µM	> 100 µM	0.506 µM	3.77 µM	0.271 µM	1.12 µM			0.0389 µM	0.445 µM
